Drawing on patent US12539292B2, “BRM targeting compounds and associated methods of use” (Arvinas Operations, Inc., priority 2018, dated 2026), this text covers DC50 and Dmax for twelve molecules.

Read-outs that look alike come from different tables or passages of the source. Where only a bound is given, the exact number is not on record here.

This assay addresses T1, BRM (Homo sapiens, UniProt P51531).
T1 construct: In-Cell Western Screen of BRM Degradation in SW1573 Cells; endogenous in cells; host or cells: SW1573
Nature of the assay: In-cell Western screen of BRM degradation in SW1573 cells (Dmax and DC50). The assay is classed as cell-based. The method, boiled down:
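BRM levels were read by LI-COR in-cell Western after two-channel (800/680 nm) immunostaining of fixed, Triton-permeabilised SW1573 cells.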

Where [1] appears, read: BRM degradation, SW1573 cells, read-out: DC50.
Setting [2] is: SW1573, % degraded, when tested at the top concentration of between 0.3 and 10 μM, read-out: BRM Dmax (%).
Setting [3] is: target protein degradation, read-out: BRM DC50.
The mark [4] stands for this setting: BRM degradation, SW1573 cells, tested at the top concentration of between 0.3 and 10 μM, read-out: Dmax (%) (% degraded).
Where [5] appears, read: BRM degradation, SW1573 cells, Table 2D, read-out: **Dmax (%) (% degraded).
[6] abbreviates: BRM degradation, SW1573 cells, Table 2D, read-out: *DC50.

T1 sequence (P51531 whole entry): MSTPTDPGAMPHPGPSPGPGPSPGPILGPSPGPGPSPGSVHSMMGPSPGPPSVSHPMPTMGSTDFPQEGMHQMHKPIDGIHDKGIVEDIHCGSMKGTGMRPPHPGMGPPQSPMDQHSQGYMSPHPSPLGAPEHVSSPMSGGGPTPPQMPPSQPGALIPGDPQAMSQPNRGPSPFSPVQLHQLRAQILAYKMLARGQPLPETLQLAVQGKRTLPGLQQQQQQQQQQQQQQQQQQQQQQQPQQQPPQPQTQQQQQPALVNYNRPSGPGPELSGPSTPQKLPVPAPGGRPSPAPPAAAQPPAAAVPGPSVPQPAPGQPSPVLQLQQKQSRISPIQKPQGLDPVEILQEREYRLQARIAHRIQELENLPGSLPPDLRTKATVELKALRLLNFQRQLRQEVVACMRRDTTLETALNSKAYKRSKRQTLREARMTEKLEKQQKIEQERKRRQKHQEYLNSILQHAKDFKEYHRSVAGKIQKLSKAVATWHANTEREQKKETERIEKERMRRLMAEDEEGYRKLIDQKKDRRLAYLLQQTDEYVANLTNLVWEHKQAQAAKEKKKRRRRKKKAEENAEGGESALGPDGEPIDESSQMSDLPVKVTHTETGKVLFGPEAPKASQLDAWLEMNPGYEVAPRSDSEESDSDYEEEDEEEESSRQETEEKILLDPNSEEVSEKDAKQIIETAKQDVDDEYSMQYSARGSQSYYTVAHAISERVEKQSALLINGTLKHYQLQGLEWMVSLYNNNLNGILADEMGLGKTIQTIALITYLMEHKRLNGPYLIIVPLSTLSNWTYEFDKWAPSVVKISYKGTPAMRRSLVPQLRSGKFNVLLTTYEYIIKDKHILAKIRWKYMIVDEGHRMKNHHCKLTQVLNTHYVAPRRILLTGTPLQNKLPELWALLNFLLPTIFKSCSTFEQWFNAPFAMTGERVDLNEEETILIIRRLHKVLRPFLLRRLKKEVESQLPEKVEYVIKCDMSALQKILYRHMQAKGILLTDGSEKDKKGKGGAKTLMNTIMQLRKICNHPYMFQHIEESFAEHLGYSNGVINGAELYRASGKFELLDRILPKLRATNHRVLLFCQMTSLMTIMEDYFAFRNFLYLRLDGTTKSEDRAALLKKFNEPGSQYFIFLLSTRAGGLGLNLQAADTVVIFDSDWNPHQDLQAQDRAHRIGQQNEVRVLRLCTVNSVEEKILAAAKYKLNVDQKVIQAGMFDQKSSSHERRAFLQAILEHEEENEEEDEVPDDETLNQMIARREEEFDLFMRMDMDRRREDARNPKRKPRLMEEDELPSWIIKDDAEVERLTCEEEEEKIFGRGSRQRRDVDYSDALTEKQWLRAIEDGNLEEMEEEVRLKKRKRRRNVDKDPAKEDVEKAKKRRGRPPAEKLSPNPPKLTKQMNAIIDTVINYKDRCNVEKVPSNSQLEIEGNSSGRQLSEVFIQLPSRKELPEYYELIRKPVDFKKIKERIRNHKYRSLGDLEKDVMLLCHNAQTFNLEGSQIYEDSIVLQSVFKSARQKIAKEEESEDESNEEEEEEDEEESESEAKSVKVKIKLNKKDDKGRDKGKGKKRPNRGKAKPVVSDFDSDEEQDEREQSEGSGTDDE

A word on the DC50: it is the midpoint of the concentration-degradation curve. In the case of `Cc1ncsc1-c1ccc([C@H](C)NC(=O)[C@@H]2C[C@@H](O)CN2C(=O)[C@H](c2cc(N3CCC(CN4CCC(O[C@H]5C[C@H](Oc6cc(N7C8CCC7CN(c7cc(-c9ccccc9O)nnc7N)C8)ccn6)C5)CC4)CC3)no2)C(C)C)cc1O` [compound 700, (2S,4R)-1-((2S)-2-(3-(4-((4-((1r,3r)-3-((4-(3-(3-amino-6-(2-hydroxyphenyl)pyridazin-4-yl)-3,8-diazabicyclo[3.2.1]octan-8-yl)pyridin-2-yl)oxy)cyclobutoxy)piperidin-1-yl)methyl)piperidin-1-yl)isoxazol-5-yl)-3-methylbutanoyl)-4-hydroxy-N-((S)-1-(3-hydroxy-4-(4-methylthiazol-5-yl)phenyl)ethyl)pyrrolidine-2-carboxamide], the DC50 under setting [1] is > 30 nM. The Dmax is the largest share of the target that was removed. In the case of `Cc1ncsc1-c1ccc([C@H](C)NC(=O)[C@@H]2C[C@@H](O)CN2C(=O)[C@@H](c2cc(OCCN3CCC(OC4CN(c5cc(N6C7CCC6CN(c6cc(-c8ccccc8O)nnc6N)C7)ccn5)C4)CC3)no2)C(C)C)cc1` [compound 355, (2S,4R)-1-((2R)-2-(3-(2-(4-((1-(4-(3-(3-amino-6-(2-hydroxyphenyl)pyridazin-4-yl)-3,8-diazabicyclo[3.2.1]octan-8-yl)pyridin-2-yl)azetidin-3-yl)oxy)piperidin-1-yl)ethoxy)isoxazol-5-yl)-3-methylbutanoyl)-4-hydroxy-N-((S)-1-(4-(4-methylthiazol-5-yl)phenyl)ethyl)pyrrolidine-2-carboxamide], the Dmax under setting [2] was > 75%. Also, the DC50 under setting [3] was < 2.5 nM. On to `COc1cc(-c2scnc2C)ccc1[C@H](C)NC(=O)[C@@H]1C[C@@H](O)CN1C(=O)[C@H](c1cc(OCCN2CCC(O[C@H]3C[C@H](Oc4cc(N5C6CCC5CN(c5cc(-c7ccccc7O)nnc5N)C6)ccn4)C3)CC2)no1)C(C)C` [compound 201, (2S,4R)-1-((2S)-2-(3-(2-(4-((1r,3S)-3-((4-(3-(3-amino-6-(2-hydroxyphenyl)pyridazin-4-yl)-3,8-diazabicyclo[3.2.1]octan-8-yl)pyridin-2-yl)oxy)cyclobutoxy)piperidin-1-yl)ethoxy)isoxazol-5-yl)-3-methylbutanoyl)-4-hydroxy-N-((S)-1-(2-methoxy-4-(4-methylthiazol-5-yl)phenyl)ethyl)pyrrolidine-2-carboxamide], for which the DC50 under setting [1] was in the range of 10 to 30 nM. In addition, the Dmax under setting [4] was > 75%. For `COCc1ncsc1-c1ccc([C@H](C)NC(=O)[C@@H]2C[C@@H](O)CN2C(=O)[C@@H](c2cc(OCCN3CCC(O[C@H]4C[C@H](Oc5cc(N6C7CCC6CN(c6cc(-c8ccccc8O)nnc6N)C7)ccn5)C4)CC3)no2)C(C)C)cc1` [compound 185, (2S,4R)-1-((2R)-2-(3-(2-(4-((1r,3R)-3-((4-(3-(3-amino-6-(2-hydroxyphenyl)pyridazin-4-yl)-3,8-diazabicyclo[3.2.1]octan-8-yl)pyridin-2-yl)oxy)cyclobutoxy)piperidin-1-yl)ethoxy)isoxazol-5-yl)-3-methylbutanoyl)-4-hydroxy-N-((S)-1-(4-(4-(methoxymethyl)thiazol-5-yl)phenyl)ethyl)pyrrolidine-2-carboxamide] the same measures were < 2.5 nM and > 75%. For `Cc1ncsc1-c1ccc([C@@H](NC(=O)[C@@H]2C[C@@H](O)CN2C(=O)[C@@H](c2cc(OCCN3CCC(O[C@H]4C[C@H](Oc5cc(N6C7CCC6CN(c6cc(-c8ccccc8O)nnc6N)C7)ccn5)C4)CC3)no2)C(C)C)C(F)F)cn1` [compound 244, (2S,4R)-1-((2R)-2-(3-(2-(4-((1r,3R)-3-((4-(3-(3-amino-6-(2-hydroxyphenyl)pyridazin-4-yl)-3,8-diazabicyclo[3.2.1]octan-8-yl)pyridin-2-yl)oxy)cyclobutoxy)piperidin-1-yl)ethoxy)isoxazol-5-yl)-3-methylbutanoyl)-N-((R)-2,2-difluoro-1-(6-(4-methylthiazol-5-yl)pyridin-3-yl)ethyl)-4-hydroxypyrrolidine-2-carboxamide] the same measures were < 2.5 nM and > 75%.

For `Cc1ncsc1-c1ccc([C@H](C)NC(=O)[C@@H]2C[C@@H](O)CN2C(=O)[C@@H](c2cc(N3CCC(OC4CCN(CC5CC(CN6CCC([C@H](C)n7cc(-c8cc(-c9ccccc9O)nnc8N)cn7)CC6)C5)CC4)CC3)no2)C(C)C)cc1` (single isomer, unassigned) [compound 594], the Dmax under setting [5] was > 75%. In addition, the DC50 under setting [6] is < 2.5 nM.

With `Cc1nccn1-c1ccc([C@H](C)NC(=O)[C@@H]2C[C@@H](O)CN2C(=O)[C@@H](c2cc(N3CCN(CC4CCN(C[C@H]5C[C@H](Oc6cc(N7C8CCC7CN(c7cc(-c9ccccc9O)nnc7N)C8)ccn6)C5)CC4)CC3)no2)C(C)C)cc1` [compound 437, (2S,4R)-1-((2R)-2-(3-(4-((1-(((1r,3r)-3-((4-(3-(3-amino-6-(2-hydroxyphenyl)pyridazin-4-yl)-3,8-diazabicyclo[3.2.1]octan-8-yl)pyridin-2-yl)oxy)cyclobutyl)methyl)piperidin-4-yl)methyl)piperazin-1-yl)isoxazol-5-yl)-3-methylbutanoyl)-4-hydroxy-N-((S)-1-(4-(2-methyl-1H-imidazol-1-yl)phenyl)ethyl)pyrrolidine-2-carboxamide], the Dmax under setting [2] is > 75%. Moreover, where the note is “degradation of BRM, read-out: BRM DC50”, the DC50 was < 2.5 nM. Regarding `Cc1ncsc1-c1ccc([C@H](C)NC(=O)[C@@H]2C[C@@H](O)CN2C(=O)[C@@H](c2cc(OCC#CC34CC(CN5CC(Oc6cc(N7C8CCC7CN(c7cc(-c9ccccc9O)nnc7N)C8)ccn6)C5)(C3)C4)no2)C(C)C)cc1` [compound 383, (2S,4R)-1-((2R)-2-(3-((3-(3-((3-((4-(3-(3-amino-6-(2-hydroxyphenyl)pyridazin-4-yl)-3,8-diazabicyclo[3.2.1]octan-8-yl)pyridin-2-yl)oxy)azetidin-1-yl)methyl)bicyclo[1.1.1]pentan-1-yl)prop-2-yn-1-yl)oxy)isoxazol-5-yl)-3-methylbutanoyl)-4-hydroxy-N-((S)-1-(4-(4-methylthiazol-5-yl)phenyl)ethyl)pyrrolidine-2-carboxamide], the Dmax under setting [2] is > 75%. In addition, under setting [3], the DC50 was > 30 nM.

For the molecule `COc1nc(-c2scnc2C)ccc1[C@H](C)NC(=O)[C@@H]1C[C@@H](O)CN1C(=O)[C@H](c1cc(OCCN2CCC(O[C@H]3C[C@H](Oc4cc(N5C6CCC5CN(c5cc(-c7ccccc7O)nnc5N)C6)ccn4)C3)CC2)no1)C(C)C` [compound 278, (2S,4R)-1-((2S)-2-(3-(2-(4-((1r,3S)-3-((4-(3-(3-amino-6-(2-hydroxyphenyl)pyridazin-4-yl)-3,8-diazabicyclo[3.2.1]octan-8-yl)pyridin-2-yl)oxy)cyclobutoxy)piperidin-1-yl)ethoxy)isoxazol-5-yl)-3-methylbutanoyl)-4-hydroxy-N-((S)-1-(2-methoxy-6-(4-methylthiazol-5-yl)pyridin-3-yl)ethyl)pyrrolidine-2-carboxamide], the DC50 under setting [1] is > 30 nM. Consider `Cc1ncsc1-c1ccc([C@H](C)NC(=O)[C@@H]2C[C@@H](O)CN2C(=O)[C@@H](c2cc(OCCC3CCN(C(=O)[C@H]4C[C@@H](CN5CCC([C@@H](C)n6cc(-c7cc(-c8ccccc8O)nnc7N)cn6)CC5)C4)CC3)no2)C(C)C)cc1` [compound 452, (2S,4R)-1-((R)-2-(3-(2-(1-((1S,3S)-3-((4-((R)-1-(4-(3-amino-6-(2-hydroxyphenyl)pyridazin-4-yl)-1H-pyrazol-1-yl)ethyl)piperidin-1-yl)methyl)cyclobutane-1-carbonyl)piperidin-4-yl)ethoxy)isoxazol-5-yl)-3-methylbutanoyl)-4-hydroxy-N-((S)-1-(4-(4-methylthiazol-5-yl)phenyl)ethyl)pyrrolidine-2-carboxamide], for which the Dmax under setting [2] was > 75%. The DC50 under setting [3] fell in the range of 10 to 30 nM. With `Cc1ncsc1-c1cc(F)c([C@H](C)NC(=O)[C@@H]2C[C@@H](O)CN2C(=O)[C@@H](c2cc(OCCC3CCN(C[C@H]4C[C@H](Oc5cc(N6C7CCC6CN(c6cc(-c8ccccc8O)nnc6N)C7)ccn5)C4)CC3)no2)C(C)C)cc1F` [compound 552, (2S,4R)-1-((2R)-2-(3-(2-(1-(((1r,3R)-3-((4-(3-(3-amino-6-(2-hydroxyphenyl)pyridazin-4-yl)-3,8-diazabicyclo[3.2.1]octan-8-yl)pyridin-2-yl)oxy)cyclobutyl)methyl)piperidin-4-yl)ethoxy)isoxazol-5-yl)-3-methylbutanoyl)-N-((S)-1-(2,5-difluoro-4-(4-methylthiazol-5-yl)phenyl)ethyl)-4-hydroxypyrrolidine-2-carboxamide], the Dmax under setting [5] is > 75%. Under setting [6], the DC50 was < 2.5 nM.

On to `Cc1ncsc1-c1ccc([C@@H](NC(=O)[C@@H]2C[C@@H](O)CN2C(=O)[C@H](c2cc(OCCN3CCN(CCOc4cc(N5C6CCC5CN(c5cc(-c7ccccc7O)nnc5N)C6)ccn4)CC3)no2)C(C)C)C(=O)N(C)C)cc1` [compound 171, (2S,4R)-1-((2S)-2-(3-(2-(4-(2-((4-(3-(3-amino-6-(2-hydroxyphenyl)pyridazin-4-yl)-3,8-diazabicyclo[3.2.1]octan-8-yl)pyridin-2-yl)oxy)ethyl)piperazin-1-yl)ethoxy)isoxazol-5-yl)-3-methylbutanoyl)-N-((R)-2-(dimethylamino)-1-(4-(4-methylthiazol-5-yl)phenyl)-2-oxoethyl)-4-hydroxypyrrolidine-2-carboxamide], for which, under setting [1], the DC50 is > 30 nM. Moreover, the Dmax under setting [4] was in the range of 50 to 75%.
